Results reported in US20230277612A1, “SAPONIN DERIVATIVES FOR USE IN MEDICINE” (priority 2020, published 2023).
“And” between values parts separate entries of the source, which are not always exact repeats. Equal entries are not always repeated. Where two headings read alike, the source gives them in different places.

How the values were obtained:
[1] = Critical micellar concentration (CMC) by ANS fluorescence; type: physicochemical; conditions: for CMC: Table A7, determined in PBS
Procedure: The critical micellar concentration (CMC) of saponins derived from Saponaria officinalis (SO) (Table A7) and derived from Quillaja saponaria (QS) (Table A8, and Table A9) was determined by the method of DeVendittis et al. (A fluorimetric method for the estimation of the critical micelle concentration of surfactants, Analytical Biochemistry, Volume 115, Issue 2, August 1981, Pages 278-286) as follows:
(§1) The emission spectrum of 8-Anilinonaphthalene-1-sulfonic acid (ANS) in either purified water (MQ) or PBS (Dulbecco's PBS+/+) was determined at dry weight concentrations of saponins ranging from 1 to 1400 pM to cover the range below and above the CMC. Above the CMC, the fluorescence yield of ANS increases and the wavelength of maximum emission decreases due to portioning of the fluorescent dye into micelles. Fluorescence yields were recorded on a Fluoroskan Ascent FL (Thermo Scientific) at an excitation wavelength of 355 nm, and an emission wavelength of 460 nm. 6 μg at a concentration of 75.86 pM of ANS were used per sample and measurement.
The critical micellar concentration (CMC) of saponins was determined by the method of DeVendittis et al. (A fluorimetric method for the estimation of the critical micelle concentration of surfactants, Analytical Biochemistry, Volume 115, Issue 2, August 1981, Pages 278-286) as follows:
as §1, with “μM” for “pM”

human red blood cells = assay: cells; type: cell-based
Procedure: Red blood cells (RBCs) were isolated from a buffy coat using a Ficoll gradient. The obtained RBC pellet (˜4-5 ml) was washed 2× with 50 ml DPBS (without Ca^2+/Mg^2+, PAN-Biotech GmbH). Cells were pelleted by centrifugation for 10 min, 800×g at RT. RBC were counted and resuspended at 500.000.000 c/ml in DPBS (without Ca^2+/Mg^2+), based on total cell count.
(§2) Saponin dilutions were prepared in DPBS (with Ca^2+/Mg^2+, PAN-Biotech GmbH), at 1.11× final strength. For positive lysis control a 0.02% Triton-X100 solution was prepared in DPBS^+/+. Of all compound solutions 135 μl was dispensed/well in a 96 well V-bottom plate. To this 15 μl RBC suspension was added and mixed shortly (10 sec-600 rpm). The plate was incubated 30 min at RT, with gentle agitation. Afterwards the plate was spun for 10 min at 800×g to pellet the RBC and 100-120 μl supernatant was transferred to a standard 96 wp (96 well-plate).
as §2, with “DPBS+/+.” for “DPBS^+/+.”

HeLa cells = assay: cells; type: cell-based
Procedure: (§3) (FIGS. 66a and 66B). Next toxicity was determined, for this the modified saponins were titrated on HeLa and A431 cells. […] Next toxicity was determined, for this the modified saponins were titrated on HeLa and A431 cells.

[2] = system: EGFR expressing cells (A431); type: cell-based
[3] = system: EGFR expressing cells (HeLa); type: cell-based
A431 cells = assay: cells; type: cell-based
Procedure: as §3

[4] = read-out: IC50 hemolytic activity
[5] = Table A12, read-out: IC50 nM (Toxicity)
[6] = A431, + 5 pM EGFdianthin, read-out: IC50 endosomal escape enhancing activity
[7] = HeLa, + 5 pM EGFdianthin, read-out: IC50 endosomal escape enhancing activity
[8] = Table A5, read-out: IC50 nM (hemolysis)
[9] = Table A6, read-out: IC50 nM (hemolysis)
[10] = Table A5, HeLa cells, saponin titrated + 5 pM EGFdianthin, read-out: IC50 nM (Activity)
[11] = Table A6, saponin alone, read-out: IC50 nM (Toxicity)
[12] = Table A5, saponin alone, read-out: IC50 nM (Toxicity)
[13] = Homo sapiens, HeLa, Table A5, saponin alone, read-out: IC50 nM (Toxicity)
[14] = Homo sapiens, HeLa, saponin alone, read-out: IC50 toxicity
[15] = saponin alone, read-out: IC50 toxicity

In the case of `CC(=O)OC1C(C)OC(OC2C(C)OC(OC(=O)C34CCC(C)(C)CC3C3=CCC5C6(C)CCC(OC7OC(C(=O)O)C(O)C(OC8OCC(O)C(O)C8O)C7OC7OC(CO)C(O)C(O)C7O)C(C)(C=NNC(=O)CCCCCN7C(=O)C=CC7=O)C6CCC5(C)C3(C)CC4O)C(OC3OC(C)C(OC4OCC(O)C(OC5OC(CO)C(O)C(O)C5O)C4O)C(O)C3O)C2O)C(O)C1OC1OCC(O)C(O)C1O` (centres unmarked) [Molecule 2], the “CMC compared to corresponding underivatised saponin” value [1] is reported as “increased CMC”.

For `CC[C@H](C)[C@H](C[C@H](O)CC(=O)OC1C(C)OC(OC(=O)[C@]23CCC(C)(C)CC2C2=CCC4[C@@]5(C)CC[C@H](OC6OC(C(=O)NC(C)(CO)CO)C(O)C(OC7OCC(O)C(O)C7O)C6OC6OC(CO)C(O)C(O)C6O)[C@@](C)(/C=N/NC(=O)CCCCCN6C(=O)C=CC6=O)C5CC[C@@]4(C)[C@]2(C)C[C@H]3O)C(OC2OC(C)C(OC3OCC(O)C(OC4OCC(O)(CO)C4O)C3O)C(O)C2O)C1O)OC(=O)C[C@@H](O)C[C@H](OC1OC(CO)C(O)C1O)[C@@H](C)CC` (some centres unmarked) [QS21-(Ald-EMCH)-(Glu-AMPD)], the IC50 (human red blood cells; Table A12, read-out: IC50 nM (hemolysis)) was > 300000 nM, the IC50 (human red blood cells; [4]) was > 300000 nM and the IC50 (HeLa cells; [5]) was > 30000 nM.

In the case of `CC[C@H](C)[C@H](C[C@H](O)CC(=O)OC1C(C)OC(OC(=O)[C@]23CCC(C)(C)CC2C2=CCC4[C@@]5(C)CC[C@H](OC6OC(C(=O)O)C(O)C(OC7OCC(O)C(O)C7O)C6OC6OC(CO)C(O)C(O)C6O)[C@@](C)(/C=N/NC(=O)CCCCCN6C(=O)C=CC6=O)C5CC[C@@]4(C)[C@]2(C)C[C@H]3O)C(OC2OC(C)C(OC3OCC(O)C(OC4OCC(O)(CO)C4O)C3O)C(O)C2O)C1O)OC(=O)C[C@@H](O)C[C@H](OC1OC(CO)C(O)C1O)[C@@H](C)CC` (some centres unmarked) [QS21-Ald-EMCH], the IC50 [2, 6] is reported as 900 nM, the IC50 [3, 7] is reported as 900 nM and the IC50 (HeLa cells; [5]) is reported as > 30000 nM.

For `CC(=O)OC1C(C)OC(OC2C(C)OC(OC(=O)[C@]34CCC(C)(C)CC3C3=CCC5[C@@]6(C)CC[C@H](OC7OC(C(=O)O)C(O)C(OC8OCC(O)C(O)C8O)C7OC7OC(CO)C(O)C(O)C7O)[C@@](C)(C=O)C6CC[C@@]5(C)[C@]3(C)C[C@H]4O)C(OC3OC(C)C(OC4OCC(O)C(OC5OCC(O)C(O)C5O)C4O)C(O)C3O)C2O)C(O)C1OC1OCC(O)C(O)C1O` (some centres unmarked) [SO1832, reference compound], the IC50 (human red blood cells; [4]) was ~10000 nM.

With `CC1OC(OC2C(C)OC(OC(=O)C34CCC(C)(C)CC3C3=CCC5C6(C)CCC(OC7OC(C(=O)NC(C)(CO)CO)C(O)C(OC8OCC(O)C(O)C8O)C7OC7OC(CO)C(O)C(O)C7O)C(C)(C=NNC(=O)CCCCCN7C(=O)C=CC7=O)C6CCC5(C)C3(C)CC4O)C(OC3OC(C)C(OC4OCC(O)C(OC5OC(CO)C(O)C(O)C5O)C4O)C(O)C3O)C2O)C(O)C(OC2OCC(O)C(O)C2O)C1O` (centres unmarked) [SO1861-(Ald-EMCH)-(Ac—OH)-(Glu-AMPD)] the IC50 (human red blood cells; [8]) was > 1e+06 nM, the IC50 (human red blood cells; [9]) was > 1e+06 nM and the IC50 ([2]; Table A6, A431 cells, saponin titrated + 5 pM EGFdianthin, read-out: IC50 nM (Activity)) was > 20000 nM. For the same compound, the IC50 [3, 10] was > 20000 nM, the IC50 (A431 cells; [11]) was > 100000 nM and the IC50 (HeLa cells; [12]) was > 100000 nM.

For `CC(=O)OC1C(C)OC(OC2C(C)OC(OC(=O)C34CCC(C)(C)CC3C3=CCC5C6(C)CCC(OC7OC(C(=O)NC(C)(CO)CO)C(O)C(OC8OCC(O)C(O)C8O)C7OC7OC(CO)C(O)C(O)C7O)C(C)(C=NNC(=O)CCCCCN7C(=O)C=CC7=O)C6CCC5(C)C3(C)CC4O)C(OC3OC(C)C(OC4OCC(O)C(OC5OC(CO)C(O)C(O)C5O)C4O)C(O)C3O)C2O)C(O)C1OC1OCC(O)C(O)C1O` (centres unmarked) [SO1861-(Ald-EMCH)-(Glu-AMPD)], the IC50 (human red blood cells; [8]) was > 1e+06 nM, the IC50 (human red blood cells; [9]) was > 1e+06 nM and the “CMC” value [1] was >30 µM. The IC50 (A431 cells; [11]) was > 100000 nM and the IC50 (HeLa cells; [12]) was > 100000 nM.

`CC1OC(OC2C(C)OC(OC(=O)[C@]34CCC(C)(C)CC3C3=CCC5[C@@]6(C)CC[C@H](OC7OC(C(=O)O)C(O)C(OC8OCC(O)C(O)C8O)C7OC7OC(CO)C(O)C(O)C7O)[C@@](C)(CO)C6CC[C@@]5(C)[C@]3(C)C[C@H]4O)C(OC3OC(C)C(OC4OCC(O)C(OC5OC(CO)C(O)C(O)C5O)C4O)C(O)C3O)C2O)C(O)C(OC2OCC(O)C(O)C2O)C1O` (some centres unmarked) [SO1861-(Ald-OH)-(Ac—OH)] showed an IC50 (human red blood cells; [8]) of 200000 nM, an IC50 (human red blood cells; [9]) of 200000 nM and an IC50 (human red blood cells; [4]) of 200000 nM. For the same compound, the “CMC” value [1] was >280 µM, the IC50 (A431 cells; [11]) was > 100000 nM and the IC50 (HeLa cells; [12]) was > 100000 nM.

With `CC(=O)OC1C(C)OC(OC2C(C)OC(OC(=O)[C@]34CCC(C)(C)CC3C3=CCC5[C@@]6(C)CC[C@H](OC7OC(C(=O)NC(C)(CO)CO)C(O)C(OC8OCC(O)C(O)C8O)C7OC7OC(CO)C(O)C(O)C7O)[C@@](C)(CO)C6CC[C@@]5(C)[C@]3(C)C[C@H]4O)C(OC3OC(C)C(OC4OCC(O)C(OC5OC(CO)C(O)C(O)C5O)C4O)C(O)C3O)C2O)C(O)C1OC1OCC(O)C(O)C1O` (some centres unmarked) [SO1861-(Ald-OH)-(Glu-AMPD)] the IC50 [2, 6] was 4000 nM, the IC50 [3, 7] was 4000 nM and the “CMC” value [1] was 50 ± 5 µM. For the same compound, the IC50 (A431 cells; [11]) was > 100000 nM and the IC50 (HeLa cells; [12]) was > 100000 nM.

Compound `CC(=O)OC1C(C)OC(OC2C(C)OC(OC(=O)[C@]34CCC(C)(C)CC3C3=CCC5[C@@]6(C)CC[C@H](OC7OC(C(=O)O)C(O)C(OC8OCC(O)C(O)C8O)C7OC7OC(CO)C(O)C(O)C7O)[C@@](C)(/C=N/NC(=O)CCCCCN7C(=O)C[C@H](SCCO)C7=O)C6CC[C@@]5(C)[C@]3(C)C[C@H]4O)C(OC3OC(C)C(OC4OCC(O)C(OC5OC(CO)C(O)C(O)C5O)C4O)C(O)C3O)C2O)C(O)C1OC1OCC(O)C(O)C1O` (some centres unmarked) [SO1861-Ald-EMCH-blocked] has an IC50 (human red blood cells; Homo sapiens, Erythrocyte, Table A5, read-out: IC50 nM (hemolysis)) of 300000 nM, an IC50 (human red blood cells; Homo sapiens, Erythrocyte, Table A6, read-out: IC50 nM (hemolysis)) of 300000 nM and an IC50 (human red blood cells; Homo sapiens, Erythrocyte, read-out: IC50 hemolytic activity) of 300000 nM. The “CMC” value [1] was 50 ± 5 µM, the IC50 (HeLa cells; [13]) was > 100000 nM and the IC50 (HeLa cells; [14]) was > 100000 nM.

With `CC(=O)OC1C(C)OC(OC2C(C)OC(OC(=O)[C@]34CCC(C)(C)CC3C3=CCC5[C@@]6(C)CC[C@H](OC7OC(C(=O)NCCN8C(=O)C=CC8=O)C(O)C(OC8OCC(O)C(O)C8O)C7OC7OC(CO)C(O)C(O)C7O)[C@@](C)(C=O)C6CC[C@@]5(C)[C@]3(C)C[C@H]4O)C(OC3OC(C)C(OC4OCC(O)C(OC5OC(CO)C(O)C(O)C5O)C4O)C(O)C3O)C2O)C(O)C1OC1OCC(O)C(O)C1O` (some centres unmarked) [SO1861-Glu-AEM] the “CMC” value [1] was 45 ± 5 µM, the IC50 (A431 cells; Homo sapiens, A-431, Table A6, saponin alone, read-out: IC50 nM (Toxicity)) was > 100000 nM and the IC50 (A431 cells; Homo sapiens, A-431, text, saponin alone, read-out: IC50 toxicity) was > 100000 nM. The IC50 (HeLa cells; [13]) was > 100000 nM and the IC50 (HeLa cells; [14]) was > 100000 nM.

For `CC(=O)OC1C(C)OC(OC2C(C)OC(OC(=O)[C@]34CCC(C)(C)CC3C3=CCC5[C@@]6(C)CC[C@H](OC7OC(C(=O)NC(C)(CO)CO)C(O)C(OC8OCC(O)C(O)C8O)C7OC7OC(CO)C(O)C(O)C7O)[C@@](C)(C=O)C6CC[C@@]5(C)[C@]3(C)C[C@H]4O)C(OC3OC(C)C(OC4OCC(O)C(OC5OC(CO)C(O)C(O)C5O)C4O)C(O)C3O)C2O)C(O)C1OC1OC(C)C(O)C(O)C1O` (some centres unmarked) [SO1861-Glu-AMPD], the “CMC” value [1] was 50 ± 5 µM.

For Aescin [reference compound], the IC50 (human red blood cells; [4]) was 10000 nM, the IC50 (A431 cells; [15]) was > 30000 nM and the IC50 (HeLa cells; [5]) was > 30000 nM.

QS21 [reference compound] gave an IC50 [2, 6] of 90 nM, an IC50 [3, 7] of 200 nM and an IC50 [3, 10] of 200 nM. For the same compound, the IC50 ([3]; Table A12, HeLa cells, + 5 pM EGFdianthin, read-out: IC50 nM (Activity)) was 200 nM and the IC50 (HeLa cells; [15]) was 6000 nM and 10000 nM.
